# Measurements reported in US9210927B2, “Pesticidal compositions and processes related thereto” (Dow AgroSciences LLC, priority 2013, dated 2015).
# How the values were obtained:
# Format in all cases: in vivo
# [1] = test system: BAW (Spodoptera exigua); assay: Bioassays on Beet Armyworm (BAW), 128-well diet tray assay; conditions: Spodoptera exigua, 168 h, read-out: BAW Rating
# Procedure, shortened: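 Second-instar larvae (one to five per well) placed on artificial diet treated with 50 μg/cm^2 compound in 90:10 acetone-water, eight wells per compound. Held covered at 25° C., 14:10 light-dark for five to seven days; percent mortality averaged across wells.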
# [2] = test system: CEW (Helicoverpa zea); assay: Bioassays on Corn Earworm (CEW), 128-well diet tray assay; conditions: Helicoverpa zea, 168 h; percent mortality, second instar larvae, 50 μg/cm^2 on artificial diet, five to seven days, 25° C.; read-out: CEW Rating
# Procedure, shortened: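 Second-instar larvae (one to five per well) placed on artificial diet treated with 50 μg/cm^2 compound in 90:10 acetone-water and dried, eight wells per compound. Held 25 °C, 14:10 light-dark, five to seven days; percent mortality scored per well and averaged.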
# [3] = test system: GPA (Myzus persicae); assay: Bioassays on Green Peach Aphid (GPA), foliar spray on cabbage seedlings; conditions: 72 h, corrected % control (Abbott), 200 ppm spray on cabbage seedlings, three days, read-out: GPA Rating
# Protocol: Bioassays on Green Peach Aphid (“GPA”) (Myzus persicae) Certain molecules disclosed in this document were tested against GPA using procedures described in the following example. In the reporting of the results, the “GPA Rating Table” was used (See Table Section). Cabbage seedlings grown in 3-inch pots, with 2-3 small (3-5 cm) true leaves, were used as test substrate. The seedlings were infested with 20-50 GPA (wingless adult and nymph stages) one day prior to chemical application. Four pots with individual seedlings were used for each treatment. Test compounds (2 mg) were dissolved in 2 mL of acetone/MeOH (1:1) solvent, forming stock solutions of 1000 ppm test compound. The stock solutions were diluted 5× with 0.025% Tween 20 in H2O to obtain the solution at 200 ppm test compound. A hand-held aspirator-type sprayer was used for spraying a solution to both sides of […] leaves until runoff. Reference plants (solvent check) were sprayed with the diluent only containing 20% by volume of acetone/MeOH (1:1) solvent. Treated plants were held in a holding room for three days at approximately 25° C. and ambient relative humidity (RH) prior to grading. Evaluation was conducted by counting the number of live aphids per plant under a microscope. Percent Control was measured by using Abbott's correction formula (W. S. Abbott, “A Method of Computing the Effectiveness of an Insecticide” J. Econ. Entomol. 18 (1925), pp. 265-267) as follows. Corrected % Control=100*(X−Y)/X • where • X=No. of live aphids on solvent check plants and • Y=No. of live aphids on treated plants The results are indicated in the table entitled “Table 3: Assay Results” (See Table Section).
Compound,pest or weed control at 50 µg/cm2 [1],pest or weed control at 50 µg/cm2 [2],pest or weed control at 200 ppm [3]
"O=C(CNC(=O)c1ccc(/C=C/C(c2cc(Cl)c(Cl)c(Cl)c2)C(F)(F)F)cc1Cl)NCC(F)(F)F (stereo not drawn) [AC64, (E)-2-Chloro-N-(2-oxo-2-((2,2,2-trifluoroethyl)amino)ethyl)-4-(4,4,4-trifluoro-3-(3,4,5-trichlorophenyl)but-1-en-1-yl)benzamide]",50 to 100%,50 to 100%,0 to 80%
O=C(NCc1ccc(Cl)nc1)c1ccc(/C=C/C(c2cc(Cl)c(F)c(Cl)c2)C(F)(F)F)cc1F (stereo not drawn) [AC65],50 to 100%,50 to 100%,0 to 80%
O=C(CNC(=O)c1ccc(/C=C/C(c2cc(Cl)c(Cl)c(Cl)c2)C(F)(F)F)cc1Br)NCC(F)(F)F (stereo not drawn) [AC66],50 to 100%,50 to 100%,0 to 80%
O=C(NC1CSC1)c1ccc(/C=C/C(c2cc(Cl)c(F)c(Cl)c2)C(F)(F)F)cc1F (stereo not drawn) [AC67],50 to 100%,50 to 100%,0 to 80%
Cc1cc(/C=C/C(c2cc(Cl)c(F)c(Cl)c2)C(F)(F)F)ccc1C(=O)NCC(=O)NCC(F)(F)F (stereo not drawn) [AC69],50 to 100%,50 to 100%,80 to 100%
COc1cc(/C=C/C(c2cc(Cl)c(F)c(Cl)c2)C(F)(F)F)ccc1C(=O)NC1CSC1 (stereo not drawn) [AC71],50 to 100%,50 to 100%,0 to 80%
CCc1cc(/C=C/C(c2cc(Cl)c(F)c(Cl)c2)C(F)(F)F)ccc1C(=O)NCc1ccc(Cl)nc1 (stereo not drawn) [AC72],50 to 100%,50 to 100%,0 to 80%
O=C(NCc1ccc(C(F)(F)F)nc1)c1ccc(/C=C/C(c2cc(Cl)c(Cl)c(Cl)c2)C(F)(F)F)cc1Br (stereo not drawn) [AC75],50 to 100%,50 to 100%,0 to 80%
Cc1cc(/C=C/C(c2cc(Cl)c(F)c(Cl)c2)C(F)(F)F)ccc1C(=O)NCc1cc(Cl)ccn1 (stereo not drawn) [AC77],50 to 100%,50 to 100%,0 to 80%
Cc1cc(/C=C/C(c2cc(Cl)c(Cl)c(Cl)c2)C(F)(F)F)ccc1C(=O)NCC(=O)NCC(F)(F)F (stereo not drawn) [AC78],50 to 100%,50 to 100%,80 to 100%
"O=C(CNC(=O)c1ccc(/C=C/C(c2cc(Cl)c(F)c(Cl)c2)C(F)(F)F)cc1Br)NCC(F)(F)F (stereo not drawn) [AC79, (E)-2-Bromo-4-(3-(3,5-dichloro-4-fluorophenyl)-4,4,4-trifluorobut-1-en-1-yl)-N-(2-oxo-2-((2,2,2-trifluoroethyl)amino)ethyl)benzamide]",50 to 100%,50 to 100%,80 to 100%
CCc1cc(/C=C/C(c2cc(Cl)c(F)c(Cl)c2)C(F)(F)F)ccc1C(=O)NCC(=O)NCC(F)(F)F (stereo not drawn) [AC80],50 to 100%,50 to 100%,0 to 80%
"O=C(NC1CS(=O)(=O)C1)c1ccc(/C=C/C(c2cc(Cl)cc(Cl)c2)C(F)(F)F)cc1F (stereo not drawn) [AC83, (E)-4-(3-(3,5-Dichlorophenyl)-4,4,4-trifluorobut-1-en-1-yl)-N-(1,1-dioxidothietan-3-yl)-2-fluorobenzamide]",50 to 100%,50 to 100%,0 to 80%
COc1cc(/C=C/C(c2cc(Cl)c(F)c(Cl)c2)C(F)(F)F)ccc1C(=O)NC1CS(=O)(=O)C1 (stereo not drawn) [AC85],50 to 100%,50 to 100%,0 to 80%
O=C(NC1C[S+]([O-])C1)c1ccc(/C=C/C(c2cc(Cl)c(F)c(Cl)c2)C(F)(F)F)cc1F (stereo not drawn) [AC87],50 to 100%,50 to 100%,0 to 80%
"Cc1cc(/C=C/C(c2cc(Cl)cc(Cl)c2)C(F)(F)F)ccc1C(=O)NCc1nnc(C2CC2)o1 (stereo not drawn) [AC89, (E)-N-((5-Cyclopropyl-1,3,4-oxadiazol-2-yl)methyl)-4-(3-(3,5-dichlorophenyl)-4,4,4-trifluorobut-1-en-1-yl)-2-methylbenzamide]",50 to 100%,50 to 100%,0 to 80%
"O=C(NC1CCN(C(=O)CC(F)(F)F)CC1)c1ccc(/C=C/C(c2cc(Cl)c(Cl)c(Cl)c2)C(F)(F)F)cc1Br (stereo not drawn) [AC104, (E)-2-Bromo-4-(4,4,4-trifluoro-3-(3,4,5-trichlorophenyl)but-1-en-1-yl)-N-(1-(3,3,3-trifluoropropanoyl)piperidin-4-yl)benzamide]",50 to 100%,50 to 100%,0 to 80%
"CN1CCC(NC(=O)c2ccc(/C=C/C(c3cc(Cl)c(Cl)c(Cl)c3)C(F)(F)F)cc2Br)CC1 (stereo not drawn) [AC106, (E)-2-Bromo-N-(1-methylpiperidin-4-yl)-4-(4,4,4-trifluoro-3-(3,4,5-trichlorophenyl)but-1-en-1-yl)benzamide]",50 to 100%,50 to 100%,0 to 80%
O=C(CC(F)(F)F)NC1CCCc2cc(/C=C/C(c3cc(Cl)c(Cl)c(Cl)c3)C(F)(F)F)ccc21 (stereo not drawn) [BC5],50 to 100%,50 to 100%,0 to 80%
O=C(CC(F)(F)F)NC1CCc2cc(/C=C/C(c3cc(Cl)c(F)c(Cl)c3)C(F)(F)F)ccc21 (stereo not drawn) [BC8],50 to 100%,50 to 100%,0 to 80%
"Fc1c(Cl)cc(C(/C=C/c2ccc3c(c2)CCC3NCCC(F)(F)F)C(F)(F)F)cc1Cl (stereo not drawn) [BC10, (E)-5-(3-(3,5-Dichloro-4-fluorophenyl)-4,4,4-trifluorobut-1-en-1-yl)-N-(3,3,3-trifluoropropyl)-2,3-dihydro-1H-inden-1-amine]",50 to 100%,50 to 100%,0 to 80%
O=C(NCc1ccc(/C=C/C(c2cc(Cl)cc(Cl)c2)C(F)(F)F)cc1)C1CC1 (stereo not drawn) [CC2],50 to 100%,50 to 100%,0 to 80%
CCC(=O)NCc1ccc(/C=C/C(c2cc(Cl)cc(Cl)c2)C(F)(F)F)cc1 (stereo not drawn) [CC4],50 to 100%,0 to 50%,0 to 80%
O=C(NCc1ccc(/C=C/C(c2cc(Cl)c(Cl)c(Cl)c2)C(F)(F)F)cc1)C1CC1 (stereo not drawn) [CC5],50 to 100%,50 to 100%,0 to 80%
O=C(CC(F)(F)F)NCc1ccc(/C=C/C(c2cc(Cl)c(Cl)c(Cl)c2)C(F)(F)F)cc1 (stereo not drawn) [CC6],50 to 100%,50 to 100%,0 to 80%
"CC(=O)NCc1ccc(/C=C/C(c2cc(Cl)cc(Cl)c2)C(F)(F)F)cc1Cl (stereo not drawn) [CC7, (E)-N-(2-Chloro-4-(3-(3,5-dichlorophenyl)-4,4,4-trifluorobut-1-en-1-yl)benzyl)acetamide]",50 to 100%,50 to 100%,0 to 80%
O=C(CC(F)(F)F)NCc1ccc(/C=C/C(c2cc(Cl)cc(Cl)c2)C(F)(F)F)cc1Cl (stereo not drawn) [CC9],50 to 100%,50 to 100%,0 to 80%
O=C(NCc1ccc(/C=C/C(c2cc(Cl)c(Cl)c(Cl)c2)C(F)(F)F)cc1Cl)C1CC1 (stereo not drawn) [CC11],50 to 100%,50 to 100%,0 to 80%
